This note sets out measurements from patent publication US10864159B2, “Method and composition for treating ocular hypertension and glaucoma” (Santen Pharmaceutical Co., Ltd., priority 2008, dated 2020).

The series in a line: Absorption of preservative-free tafluprost to low density polyethylene containers, remaining concentration by HPLC. The series is classed as physicochemical. The note with it: LDPE unit dose container, 20 weeks at 5° C., 25° C. and 40° C. The protocol:
The effect of nonionic surfactant on the absorption of preservative-free tafluprost to low density polyethylene containers was studied for 20 weeks at 5° C., 25° C. and 40° C. Three different polysorbate 80 (Tween 80) concentrations, namely 0.05%, 0.075% and 0.1% were used. The composition of the preservative-free aqueous tafluprost formulation except polysorbate 80 was 0.0015% tafluprost, 2.25% glycerol, 0.2% sodium dihydrogen phosphate dihydrate, 0.05% disodium edetate and sodium hydroxide and/or hydrochloric acid to adjust the pH to 5.0-6.7. 0.3 ml of the composition prepared above was filled in the body part of the unit dose container (LDPE) and sealed by heating with the upper part of the container (LDPE). The inner volume of the unit dose container was ca. 1 ml. The container was packaged into paper coated aluminium-polyethylene foil and stored in refrigerator or incubator. The remaining concentration of tafluprost was measured by HPLC.

`CC(C)OC(=O)CCC/C=C\C[C@@H]1[C@@H](/C=C/C(F)(F)COc2ccccc2)[C@H](O)C[C@@H]1O` [tafluprost]: the “absorption of tafluprost to polyethylene” value runs as follows: (polysorbate 80 0.05 to 0.1%) “inhibits the absorption of tafluprost”; (polysorbate 80 0.075 to 0.1%) “good inhibition effect of absorption of tafluprost”.
